From ChEMBL document CHEMBL1201862, “PubChem BioAssay data set” (2004)
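Cells were grown in 96-well plates and exposed to each compound for 48 hours at five concentrations; endpoints were interpolated linearly between bracketing concentrations, or set to the highest concentration if not reached. The concentration for 50% growth inhibition is given as GI50.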 The source made the active and inactive calls. No stated cut-off is given here; in the data, active = GI50 up to about 1.1 µM and inactive = higher.

Legend:
Test in all cases: inhibition of tumour cell growth, NCI panel, 48 h
ACHN = test system: ACHN
KM12 = test system: KM12
UO-31 = test system: UO-31
LOX IMVI = test system: LOX IMVI
HCC 2998 = test system: HCC 2998
Hs-578T = test system: Hs-578T
UACC-257 = test system: UACC-257
COLO 205 = test system: COLO 205
TK-10 = test system: TK-10
CAKI-1 = test system: CAKI-1
MDA-MB-231 = test system: MDA-MB-231
MOLT-4 = test system: MOLT-4
HCT-116 = test system: HCT-116
OVCAR-5 = test system: OVCAR-5
MDA-MB-435 = test system: MDA-MB-435
A498 = test system: A498
MCF7 = test system: MCF7
HL-60 = test system: HL-60

| SMILES | GI50 (ACHN) | GI50 (KM12) | GI50 (UO-31) | GI50 (LOX IMVI) | GI50 (HCC 2998) | GI50 (Hs-578T) | GI50 (UACC-257) | GI50 (COLO 205) | GI50 (TK-10) | GI50 (CAKI-1) | GI50 (MDA-MB-231) | GI50 (MOLT-4) | GI50 (HCT-116) | GI50 (OVCAR-5) | GI50 (MDA-MB-435) | GI50 (A498) | GI50 (MCF7) | GI50 (HL-60) |
| --- | --- | --- | --- | --- | --- | --- | --- | --- | --- | --- | --- | --- | --- | --- | --- | --- | --- | --- |
| COC(=O)[C@@H](O)[C@]1(C(=O)OC)C2O[C@@H](OC)[C@@H]1CCCCCC[C@H]2O | > 100 µM (inactive) | > 100 µM (inactive) | > 100 µM (inactive) | > 100 µM (inactive) | > 100 µM (inactive) | > 100 µM (inactive) | > 100 µM (inactive) | > 100 µM (inactive) | > 100 µM (inactive) | > 100 µM (inactive) | > 100 µM (inactive) | > 100 µM (inactive) | > 100 µM (inactive) | > 100 µM (inactive) | > 100 µM (inactive) |  |  |  |
| CC(C)(C)[Si](C)(C)OCC1OC(n2ccc(=O)[nH]c2=O)C(O[Si](C)(C)C(C)(C)C)[C@]12O[C@@H]2CO (stereo partly drawn) | 11.9 µM (inactive) | 14.8 µM (inactive) | 8.85 µM (inactive) | 16.3 µM (inactive) | 20.8 µM (inactive) |  | 18.2 µM (inactive) | 17.5 µM (inactive) | 14.8 µM (inactive) | 20.4 µM (inactive) | 19.5 µM (inactive) | 8.3 µM (inactive) | 11.3 µM (inactive) | 17.5 µM (inactive) | 16 µM (inactive) | 18.6 µM (inactive) | 12.1 µM (inactive) |  |
| CNc1cc([N+](=O)[O-])ccc1C(=O)N1CCC[C@H]1CO | > 100 µM (inactive) | > 100 µM (inactive) | > 100 µM (inactive) | > 100 µM (inactive) |  |  | > 100 µM (inactive) |  | > 100 µM (inactive) |  | > 100 µM (inactive) | > 100 µM (inactive) | > 100 µM (inactive) | > 100 µM (inactive) | > 100 µM (inactive) | > 100 µM (inactive) | > 100 µM (inactive) | > 100 µM (inactive) |
| COC(=O)c1cc(OCc2cc(OCc3ccc(Br)cc3)cc(OCc3ccc(Br)cc3)c2)cc(OCc2cc(OCc3ccc(Br)cc3)cc(OCc3ccc(Br)cc3)c2)c1 | > 100 µM (inactive) | > 100 µM (inactive) | > 100 µM (inactive) |  | > 100 µM (inactive) |  | > 100 µM (inactive) | > 100 µM (inactive) | > 100 µM (inactive) | > 100 µM (inactive) | > 100 µM (inactive) | > 100 µM (inactive) | > 100 µM (inactive) | > 100 µM (inactive) | > 100 µM (inactive) | > 100 µM (inactive) | > 100 µM (inactive) |  |
| O=C(/N=C1\SCCN1C(=O)C(C(F)(F)F)C(F)(F)F)C(C(F)(F)F)C(F)(F)F | > 100 µM (inactive) |  | > 100 µM (inactive) | > 100 µM (inactive) | > 100 µM (inactive) |  | > 100 µM (inactive) | > 100 µM (inactive) | > 100 µM (inactive) | > 100 µM (inactive) | > 100 µM (inactive) | > 100 µM (inactive) | > 100 µM (inactive) | > 100 µM (inactive) | > 100 µM (inactive) | > 100 µM (inactive) | > 100 µM (inactive) | > 100 µM (inactive) |
| CO[C@H]1[C@@H](O)[C@@H](O)O[C@@H](O[C@H]2CC[C@@]3(C)[C@H](CC[C@@H]4[C@@H]3[C@H](O)C[C@]3(C)[C@@H](C5=CC(=O)OC5)CC[C@]43O)C2)[C@@H]1O | 0.0471 µM (active) | 0.698 µM (active) | 0.163 µM (active) | 0.193 µM (active) | 1.67 µM (inactive) | 0.407 µM (active) | 0.382 µM (active) | 0.441 µM (active) | 0.187 µM (active) | 0.111 µM (active) | 0.649 µM (active) | 0.0304 µM (active) | 0.178 µM (active) | 0.601 µM (active) | 0.28 µM (active) | 0.184 µM (active) |  | 0.191 µM (active) |
| COc1ccc(/C=C2\C[C@H]3[C@@H]4CC=C5C[C@@H](OC(C)=O)CC[C@]5(C)[C@H]4CC[C@]3(C)\C2=N\O)cc1OC | 8 µM (inactive) | 9.27 µM (inactive) | 4.2 µM (inactive) | 13.3 µM (inactive) | 16.2 µM (inactive) | > 100 µM (inactive) | 14.9 µM (inactive) | 8.77 µM (inactive) |  | 11.2 µM (inactive) |  | 3.6 µM (inactive) | 8.05 µM (inactive) | 33.9 µM (inactive) | 20.7 µM (inactive) | 19.3 µM (inactive) | 6.3 µM (inactive) | 5.57 µM (inactive) |
| CCCCCCCCCCCC(=O)Oc1c(Cl)cc(Cl)c(OC(=O)C(=O)Oc2c(Cl)cc(Cl)c(OC(=O)CCCCCCCCCCC)c2Cl)c1Cl | > 100 µM (inactive) | > 100 µM (inactive) | > 100 µM (inactive) | > 100 µM (inactive) |  | > 100 µM (inactive) | > 100 µM (inactive) | > 100 µM (inactive) | > 100 µM (inactive) | > 100 µM (inactive) |  | 46.6 µM (inactive) | > 100 µM (inactive) | > 100 µM (inactive) | > 100 µM (inactive) |  | > 100 µM (inactive) |  |
| c1cc(C[S+]2CCCC2)oc1C[S+]1CCCC1 | > 100 µM (inactive) |  | > 100 µM (inactive) | > 100 µM (inactive) | > 100 µM (inactive) | > 100 µM (inactive) | > 100 µM (inactive) | > 100 µM (inactive) | > 100 µM (inactive) | > 100 µM (inactive) | > 100 µM (inactive) | > 100 µM (inactive) | > 100 µM (inactive) |  | > 100 µM (inactive) | 53.6 µM (inactive) |  |  |
| O=C1c2ccccc2C(=O)N1CCc1ncc[nH]1 | > 100 µM (inactive) | > 100 µM (inactive) | > 100 µM (inactive) | > 100 µM (inactive) |  | > 100 µM (inactive) | > 100 µM (inactive) | > 100 µM (inactive) | > 100 µM (inactive) | > 100 µM (inactive) |  | > 100 µM (inactive) | > 100 µM (inactive) | > 100 µM (inactive) | > 100 µM (inactive) |  | > 100 µM (inactive) |  |
| COC(=O)Nc1nc2cc(Oc3ccc4nc(NC(=O)OC)[nH]c4c3)ccc2[nH]1 |  | 0.376 µM (active) | 11.9 µM (inactive) | 2.01 µM (inactive) | 0.984 µM (active) | 0.975 µM (active) |  | 0.708 µM (active) | 4.78 µM (inactive) | 2.32 µM (inactive) | 1.68 µM (inactive) | 1 µM (active) | 0.438 µM (active) | 9.02 µM (inactive) | 0.115 µM (active) |  |  | 0.608 µM (active) |
| CC(CC(C)(C)[N+](C)(C)C)[N+](C)(C)C (stereo not drawn) | > 100 µM (inactive) | > 100 µM (inactive) | > 100 µM (inactive) |  | > 100 µM (inactive) |  | > 100 µM (inactive) | > 100 µM (inactive) | > 100 µM (inactive) | > 100 µM (inactive) |  | > 100 µM (inactive) | > 100 µM (inactive) | > 100 µM (inactive) |  |  | > 100 µM (inactive) | > 100 µM (inactive) |
